Values after ≈ are worked out from the molar mass of the structure shown.
Key:
Format in all cases: cell-based
[1] = system: P. aurigenosa clinical strains; test: Antibacterial susceptibility studies (MIC50 and MIC90), clinical strains, CLSI guidelines; conditions: for MIC50: read-out: MIC50; for MIC90: read-out: MIC90
K. pneumoniae ATCC13883 = test: Antibacterial susceptibility study, reference strain, CLSI guidelines
[2] = system: E. cloacae clinical strains; test: Antibacterial susceptibility studies (MIC50 and MIC90), clinical strains, CLSI guidelines; conditions: for MIC50 / MIC90: Enterobacter cloacae; for MIC50: read-out: MIC50; for MIC90: read-out: MIC90
[3] = system: K. pneumoniae clinical strains; test: as above; conditions: for MIC50 / MIC90: Klebsiella pneumoniae; for MIC50: read-out: MIC50; for MIC90: read-out: MIC90
[4] = system: A. baumannii clinical strains; test: as above; conditions: for MIC50 / MIC90: Acinetobacter baumannii; for MIC50: read-out: MIC50; for MIC90: read-out: MIC90; for Minimum (MIC): in µg/mL
E. coli ATCC25922 = test: Antibacterial susceptibility study, reference strain, CLSI guidelines
[5] = system: Enterococcus faecalis ATCC 29212; test: Minimum Inhibitory Concentration (MIC) in LB media; conditions: ATCC29212, read-out: Minimum Inhibitory Concentration E. faecalis ATCC 29212
Procedure: (§1) Biological Activity (Antibacterial activity): The compounds of Formula (I) are of interest due to their potent antibacterial effects. […] The medium sterility is checked by incubating at 37° C. for a period of 48 h. Bacterial cultures that are stored as glycerol stocks at -80° C. are sub cultured on LB agar plates to obtain isolated colonies. A single colony of each strain is cultured in LB broth. The cultures are incubated at 37° C., 200 rpm till they reach an optical density (OD at 600 nm) of 0.8 to 1. […] Test compounds are dissolved in dimethyl sulfoxide (DMSO) to a stock concentration of 4 mg/mi. A twofold dilution series of this DMSO stock is prepared in a 96 well V bottom microtitre plate from rows A to H. A 3 μL volume of these dilutions are transferred to a 96-well flat bottom microtitre assay plate. Controls to monitor the effects of DMSO and media sterility are included. Each well is inoculated with 150 μL of the above diluted culture. The plates are incubated at 37° C. overnight in a humidified incubator. The following morning, the plates are read using a Spectrophotometer at 600 nm wavelength.

[6] = system: Staphylococcus aureus ATCC 29213; test: Minimum Inhibitory Concentration (MIC) in LB media; conditions: ATCC29213, read-out: Minimum Inhibitory Concentration S. aureus ATCC 29213
Procedure: as §1

[7] = system: Klebsiella pneumoniae ATCC 13883; test: Minimum Inhibitory Concentration (MIC) in LB media; conditions: ATCC13883, read-out: Minimum Inhibitory Concentration K. pneumoniae ATCC 13883
Procedure: as §1

[8] = system: Acinetobacter baumannii ATCC 19606; test: Minimum Inhibitory Concentration (MIC) in LB media; conditions: ATCC19606
Procedure: as §1

[9] = system: Escherichia coli ATCC 25922; test: Minimum Inhibitory Concentration (MIC) in LB media; conditions: ATCC25922, read-out: Minimum Inhibitory Concentration E. coli ATCC 25922
Procedure: as §1

[10] = system: Pseudomonas aeruginosa ATCC 27853; test: Minimum Inhibitory Concentration (MIC) in LB media; conditions: ATCC27853, read-out: Minimum Inhibitory Concentration P. aurigenosa ATCC 27853
Procedure: as §1

A. baumannii ATCC19606 = test: Antibacterial susceptibility study, reference strain, CLSI guidelines
P. aurigenosa ATCC27853 = test: as above
E. coli clinical strains = test: Antibacterial susceptibility studies (MIC50 and MIC90), clinical strains, CLSI guidelines; conditions: for MIC50 / MIC90: Escherichia coli; for MIC50: read-out: MIC50; for MIC90: read-out: MIC90
[11] = target: human ether a go-go related gene (hERG) K+ channel (Homo sapiens (Human), UniProt Q12809); test: hERG inhibition assay, QPatch HTX automated electrophysiology; conditions: CHO cell line stably expressing hERG, whole-cell patch clamp, maximum test concentration 300 μM
human ether a go-go related gene (hERG) K+ channel, sequence (Q12809 whole entry): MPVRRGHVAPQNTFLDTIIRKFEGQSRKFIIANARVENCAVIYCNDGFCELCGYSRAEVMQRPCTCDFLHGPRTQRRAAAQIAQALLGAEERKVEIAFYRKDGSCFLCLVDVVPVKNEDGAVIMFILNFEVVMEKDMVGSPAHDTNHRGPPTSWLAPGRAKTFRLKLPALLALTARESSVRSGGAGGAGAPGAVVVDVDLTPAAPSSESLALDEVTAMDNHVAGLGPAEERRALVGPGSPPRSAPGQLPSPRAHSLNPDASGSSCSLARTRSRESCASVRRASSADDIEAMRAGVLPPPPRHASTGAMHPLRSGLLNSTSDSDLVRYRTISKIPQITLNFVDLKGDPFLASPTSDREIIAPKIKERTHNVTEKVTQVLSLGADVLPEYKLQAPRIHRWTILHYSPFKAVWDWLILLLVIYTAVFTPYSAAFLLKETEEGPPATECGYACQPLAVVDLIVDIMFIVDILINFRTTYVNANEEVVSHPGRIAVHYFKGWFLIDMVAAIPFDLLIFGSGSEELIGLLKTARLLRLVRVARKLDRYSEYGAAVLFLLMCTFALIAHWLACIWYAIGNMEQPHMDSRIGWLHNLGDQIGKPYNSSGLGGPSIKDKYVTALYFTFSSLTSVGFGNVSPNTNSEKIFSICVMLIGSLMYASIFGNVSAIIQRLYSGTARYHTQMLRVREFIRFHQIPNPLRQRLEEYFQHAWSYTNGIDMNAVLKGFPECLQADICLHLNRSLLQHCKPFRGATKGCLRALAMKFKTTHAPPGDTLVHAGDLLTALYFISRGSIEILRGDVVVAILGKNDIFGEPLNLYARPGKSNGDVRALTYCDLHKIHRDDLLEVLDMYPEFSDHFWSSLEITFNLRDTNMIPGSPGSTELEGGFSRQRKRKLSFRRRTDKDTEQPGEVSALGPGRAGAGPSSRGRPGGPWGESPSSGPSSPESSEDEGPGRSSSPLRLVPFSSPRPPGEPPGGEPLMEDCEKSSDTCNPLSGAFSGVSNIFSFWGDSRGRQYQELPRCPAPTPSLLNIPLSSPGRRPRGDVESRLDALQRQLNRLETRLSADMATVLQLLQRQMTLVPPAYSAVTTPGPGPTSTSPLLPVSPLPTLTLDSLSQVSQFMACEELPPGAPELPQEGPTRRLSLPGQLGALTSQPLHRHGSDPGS
Procedure: The compounds were tested for inhibition of the human ether a go-go related gene (hERG) K+ channel using QPatch HTX automated electrophysiology. […] Compounds were solubilised to 100 mM in DMSO before dilution in HBPS to 300 μM. […] Electrophysiological recordings were made from a Chinese Hamster Ovary cell line stably expressing the full-length hERG potassium channel. Single cell ionic currents were measured in whole-cell patch clamp configuration at room temperature (21-23° C.) using the QPatch HTX platform (Sophion). Intracellular solution contained (mM): 120 KF, 20 KCl, 10 EGTA, 10 HEPES and was buffered to pH 7.3. […] Cells were clamped at a holding potential of −80 mV. Cells were stepped to +20 mV for 2 s then −40 mV for 3s before returning to the holding potential. This sweep was repeated 10 times at 10 s intervals. hERG currents were measured from the tail step and referenced to the holding current. Compounds were then incubated for 2 minutes prior to a second measurement of ion channel current using an identical pulse train.

Minimum (MIC) [1] [µg/mL] | MIC50 [1] [µg/mL] | MIC90 [1] [µg/mL] | ATCC13883 (MIC) (K. pneumoniae ATCC13883) [µg/mL] | Minimum (MIC) [2] [µg/mL] | MIC50 [2] [µg/mL] | MIC90 [2] [µg/mL] | Minimum (MIC) [3] [µg/mL] | MIC50 [3] [µg/mL] | MIC90 [3] [µg/mL] | MIC50 [4] [µg/mL] | MIC90 [4] [µg/mL] | Minimum (MIC) [4] | ATCC25922 (MIC) (E. coli ATCC25922) [µg/mL] | MIC [5] [µg/mL] | MIC [6] [µg/mL] | MIC [7] [µg/mL] | MIC [8] [µg/mL] | MIC [9] [µg/mL] | MIC [10] [µg/mL] | SMILES | further results
0.06 | 0.5 (≈ 1.07 µM) | 2 (≈ 4.27 µM) | 0.13 | 0.06 | 0.5 (≈ 1.07 µM) | 2 (≈ 4.27 µM) | 0.125 | 1 (≈ 2.13 µM) | 4 (≈ 8.54 µM) | 0.5 (≈ 1.07 µM) | 0.5 (≈ 1.07 µM) | 0.06 | 0.06 | 0.25 (≈ 0.534 µM) | 0.06 (≈ 0.128 µM) | 0.13 (≈ 0.278 µM) | 0.25 (≈ 0.534 µM) | 0.06 (≈ 0.128 µM) | 1 (≈ 2.13 µM) | Cn1c(=O)cnc2ccc(OCCNC[C@H]3CN(c4cnc5c(n4)NC(=O)CO5)C(=O)O3)nc21 [Compound 7, (S)-6-(5-(((2-((4-methyl-3-oxo-3,4-dihydropyrido[2,3-b]pyrazin-6-yl)oxy)ethyl)amino)methyl)-2-oxooxazolidin-3-yl)-2H-pyrazino[3,2-b][1,4]oxazin-3(4H)-one] | ATCC19606 (MIC) (A. baumannii ATCC19606): 0.25 µg/mL; ATCC27853 (MIC) (P. aurigenosa ATCC27853): 1 µg/mL; Minimum (MIC) (E. coli clinical strains): 0.03 µg/mL; MIC50 (E. coli clinical strains): 0.25 µg/mL (≈ 0.534 µM); MIC90 (E. coli clinical strains): 0.5 µg/mL (≈ 1.07 µM); IC50 [11]: > 300 µM
0.06 | 0.5 (≈ 1.03 µM) | 1 (≈ 2.06 µM) | 0.03 | 0.03 | 0.25 (≈ 0.516 µM) | 0.5 (≈ 1.03 µM) | 0.03 | 0.25 (≈ 0.516 µM) | 0.5 (≈ 1.03 µM) | 0.25 (≈ 0.516 µM) | 0.5 (≈ 1.03 µM) | 0.03 | 0.03 | 0.03 (≈ 0.0619 µM) | ≤ 0.03 | 0.03 (≈ 0.0619 µM) | 0.03 (≈ 0.0619 µM) | 0.03 (≈ 0.0619 µM) | 0.5 (≈ 1.03 µM) | Cn1c(=O)ccc2ncc(OCCNC[C@H]3CN(c4cnc5c(n4)NC(=O)CS5)C(=O)O3)nc21 [Compound 14, (S)-5-(((2-((5-Methyl-6-oxo-5,6-dihydropyrido[2,3-b]pyrazin-3-yl)oxy)ethyl)amino)methyl)-3-(3-oxo-3,4-dihydro-2H-pyrazino[2,3-b][1,4]thiazin-6-yl)oxazolidin-2-one] | ATCC19606 (MIC) (A. baumannii ATCC19606): 0.03 µg/mL; ATCC27853 (MIC) (P. aurigenosa ATCC27853): 0.5 µg/mL; Minimum (MIC) (E. coli clinical strains): 0.03 µg/mL; MIC50 (E. coli clinical strains): 0.06 µg/mL (≈ 0.124 µM); MIC90 (E. coli clinical strains): 0.25 µg/mL (≈ 0.516 µM); IC50 [11]: > 150 µM

Reference: US11590142B2, “Oxazolidinone antibiotic compounds and process of preparation” (Bugworks Research, Inc., priority 2018, dated 2023)
